# Source: ChEMBL document CHEMBL1201862, “PubChem BioAssay data set” (2004)
# Active and inactive are the calls of the source. No stated cut-off is given here; in the data, actives have a measured IC50 and inactives only a lower limit.
# Target: Envelope glycoprotein gp160 (Human immunodeficiency virus 1, UniProt Q6QLK5)
# Assay: cell-free HIV fusion peptide-binding blockers – biochemical, uHTS, fluorescence dequenching, […] (AID 1986)
# Chain of Envelope glycoprotein gp160 (Q6QLK5 whole entry, the tested form may be a part): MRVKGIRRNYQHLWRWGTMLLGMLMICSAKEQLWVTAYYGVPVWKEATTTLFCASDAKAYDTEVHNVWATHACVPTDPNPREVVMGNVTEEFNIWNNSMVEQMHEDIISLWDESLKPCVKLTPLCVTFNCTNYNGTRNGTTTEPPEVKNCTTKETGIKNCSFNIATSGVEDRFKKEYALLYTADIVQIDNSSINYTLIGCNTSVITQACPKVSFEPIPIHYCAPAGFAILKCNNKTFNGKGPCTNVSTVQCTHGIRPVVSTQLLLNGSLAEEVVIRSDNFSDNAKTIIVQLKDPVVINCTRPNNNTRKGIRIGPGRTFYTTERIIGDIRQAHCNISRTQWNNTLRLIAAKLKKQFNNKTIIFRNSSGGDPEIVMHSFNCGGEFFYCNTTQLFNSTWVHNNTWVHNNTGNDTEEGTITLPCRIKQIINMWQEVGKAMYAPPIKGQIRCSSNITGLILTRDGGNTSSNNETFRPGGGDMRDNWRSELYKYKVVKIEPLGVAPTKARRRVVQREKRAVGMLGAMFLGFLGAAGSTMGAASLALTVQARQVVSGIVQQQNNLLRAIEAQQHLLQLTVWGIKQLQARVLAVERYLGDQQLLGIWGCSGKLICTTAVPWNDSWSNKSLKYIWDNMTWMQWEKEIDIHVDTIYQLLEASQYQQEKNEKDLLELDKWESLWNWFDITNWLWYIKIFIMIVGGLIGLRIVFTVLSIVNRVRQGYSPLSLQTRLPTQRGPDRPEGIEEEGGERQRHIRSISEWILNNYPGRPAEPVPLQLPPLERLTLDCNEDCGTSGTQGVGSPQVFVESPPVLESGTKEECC
row,Compound,IC50
1,CCCCCCCCCCCCCCCC[n+]1ccn(CC(C)=O)c1,14.4 µM (active)
2,Cc1ccccc1NC1=NC(=O)/C(=C/c2cccn2-c2cccc(C(=O)O)c2)S1,11.3 µM (active)
3,O=C(Nc1ccc(-c2nc3ccccc3[nH]2)cc1)c1ccccc1NS(=O)(=O)c1ccc(F)cc1,24.6 µM (active)
